In the experiment the target is T1, Recombinant human JARID1B/KDM5B (Homo sapiens, UniProt Q9UGL1).
T1 construct: purchased Active Motif 31432; host or cells: Sf9 insect cells
The experiment is described as follows: LANCE Ultra TR-FRET JARID1B (KDM5B) demethylase inhibition assay. The experiment is classed as biochemical. The following applies: 0.1 uM of test-compounds, FLAG-JARID1B, 500 nM biotinylated H3K4me3 peptide substrate, 30 min at room temperature. The essentials: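 FLAG-tagged JARID1B from Sf9 cells, pre-incubated 5 min with 0.1 uM compound (1% DMSO), then 500 nM biotinylated H3K4me3 peptide, 500 uM 2-OG, 25 uM Fe(II), 2 mM ascorbate in pH 7.5 Hepes buffer. After 30 min at room temperature, H3K4me2/1 product detected by TR-FRET (665/590 nm ratio).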
A general note: Time-resolved FRET reads energy transfer from a long-lived donor to a nearby acceptor.

T1 sequence (Q9UGL1 whole entry): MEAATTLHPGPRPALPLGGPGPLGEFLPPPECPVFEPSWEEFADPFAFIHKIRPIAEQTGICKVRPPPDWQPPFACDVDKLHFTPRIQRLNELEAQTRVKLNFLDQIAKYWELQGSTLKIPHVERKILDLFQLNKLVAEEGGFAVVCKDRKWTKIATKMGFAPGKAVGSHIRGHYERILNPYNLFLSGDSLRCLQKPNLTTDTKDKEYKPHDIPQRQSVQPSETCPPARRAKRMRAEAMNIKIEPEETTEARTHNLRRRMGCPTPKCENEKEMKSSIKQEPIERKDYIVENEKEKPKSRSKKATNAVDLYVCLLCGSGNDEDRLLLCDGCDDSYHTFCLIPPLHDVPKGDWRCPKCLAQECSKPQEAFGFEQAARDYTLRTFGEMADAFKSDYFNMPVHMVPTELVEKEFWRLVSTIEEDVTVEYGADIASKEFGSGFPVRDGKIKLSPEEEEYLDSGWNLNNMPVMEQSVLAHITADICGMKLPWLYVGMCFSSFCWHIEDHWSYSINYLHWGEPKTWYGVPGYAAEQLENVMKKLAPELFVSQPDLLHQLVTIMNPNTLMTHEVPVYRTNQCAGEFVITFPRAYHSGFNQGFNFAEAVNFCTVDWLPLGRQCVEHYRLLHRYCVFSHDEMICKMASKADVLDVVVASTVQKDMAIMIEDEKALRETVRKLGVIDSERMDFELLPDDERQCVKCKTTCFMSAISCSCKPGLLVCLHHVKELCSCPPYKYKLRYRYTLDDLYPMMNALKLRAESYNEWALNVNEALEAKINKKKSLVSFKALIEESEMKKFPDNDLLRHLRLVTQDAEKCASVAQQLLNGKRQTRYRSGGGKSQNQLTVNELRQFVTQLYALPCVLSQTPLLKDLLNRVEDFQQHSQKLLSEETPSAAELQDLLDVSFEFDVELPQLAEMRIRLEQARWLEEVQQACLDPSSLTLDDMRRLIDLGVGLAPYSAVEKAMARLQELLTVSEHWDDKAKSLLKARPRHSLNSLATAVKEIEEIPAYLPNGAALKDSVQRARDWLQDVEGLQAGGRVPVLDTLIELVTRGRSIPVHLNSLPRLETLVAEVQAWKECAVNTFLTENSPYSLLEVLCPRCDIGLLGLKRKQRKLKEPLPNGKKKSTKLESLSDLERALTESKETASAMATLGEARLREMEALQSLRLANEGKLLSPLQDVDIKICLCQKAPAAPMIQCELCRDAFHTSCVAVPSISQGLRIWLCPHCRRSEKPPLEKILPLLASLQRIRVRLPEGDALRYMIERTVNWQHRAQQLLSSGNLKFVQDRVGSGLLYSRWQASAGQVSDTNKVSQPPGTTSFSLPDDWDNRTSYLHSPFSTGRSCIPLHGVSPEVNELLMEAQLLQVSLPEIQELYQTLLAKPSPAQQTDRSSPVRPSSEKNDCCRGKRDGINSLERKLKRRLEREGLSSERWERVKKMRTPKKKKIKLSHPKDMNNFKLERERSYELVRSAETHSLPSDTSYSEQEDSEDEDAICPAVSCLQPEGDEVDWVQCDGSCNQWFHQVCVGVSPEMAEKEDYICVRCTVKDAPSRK

For `CCC[C@H](CO)Nc1nc(-c2nccc3c(=O)[nH]c(COc4ccc(F)c(Cl)c4)nc23)cs1` [Compound 121, (R)-2-((3-chloro-4-fluorophenoxy)methyl)-8-(2-((1-hydroxypentan-2-yl)amino)thiazol-4-yl)pyrido[3,4-d]pyrimidin-4(3H)-one], the inhibition at 0.1 µM lay within 20 to 50%.

In the case of `O=c1[nH]cnc2c(-n3cc(-c4cccc(CO)c4)cn3)nccc12` [Compound 3, 8-(4-(3-(hydroxymethyl)phenyl)-1H-pyrazol-1-yl)pyrido[3,4-d]pyrimidin-4(3H)-one], the inhibition at 0.1 µM was less than 20%.

Turning to `O=C(Nc1nc(-c2nccc3c(=O)[nH]c(COc4ccc(F)c(Cl)c4)nc23)cs1)c1ccccc1` [Compound 124, N-(4-(2-((3-chloro-4-fluorophenoxy)methyl)-4-oxo-3,4-dihydropyrido[3,4-d]pyrimidin-8-yl)thiazol-2-yl)benzamide], the inhibition at 0.1 µM was less than 20%.

On to `Nc1nn(-c2nccc3c(=O)[nH]cnc23)cc1-c1cccc(CO)c1` [Compound 36, 8-(3-amino-4-(3-(hydroxymethyl)phenyl)-1H-pyrazol-1-yl)pyrido[3,4-d]pyrimidin-4(3H)-one], for which the inhibition at 0.1 µM fell in the range of 20 to 50%.

Take `O=c1[nH]cnc2c(-c3csc(NCCO)n3)nccc12` [Compound 38, 8-(2-((2-hydroxyethyl)amino)thiazol-4-yl)pyrido[3,4-d]pyrimidin-4(3H)-one]: the inhibition at 0.1 µM was no less than 50%.

As to `COCCN1CCC(CNc2nc(-c3nccc4c(=O)[nH]cnc34)cs2)CC1` [Compound 53, 8-(2-(((1-(2-methoxyethyl)piperidin-4-yl)methyl)amino)thiazol-4-yl)pyrido[3,4-d]pyrimidin-4(3H)-one], the inhibition at 0.1 µM is no less than 50%.

In the case of `O=c1[nH]cnc2c(-c3csc(NCC4CCCO4)n3)nccc12` (stereo not shown) [Compound 41, 8-(2-(((tetrahydrofuran-2-yl)methyl)amino)thiazol-4-yl)pyrido[3,4-d]pyrimidin-4(3H)-one], the inhibition at 0.1 µM was no less than 50%.

As for `CN(C)CCNc1nc(-c2nccc3c(=O)[nH]c(Cc4ccccc4)nc23)cs1` [Compound 140, 2-benzyl-8-(2-((2-(dimethylamino)ethyl)amino)thiazol-4-yl)pyrido[3,4-d]pyrimidin-4(3H)-one], the inhibition at 0.1 µM lay in the range of 20 to 50%.

For the compound `COCCNc1nc(-c2nccc3c(=O)[nH]c(COc4ccc(F)c(Cl)c4)nc23)cs1` [Compound 86, 2-((3-chloro-4-fluorophenoxy)methyl)-8-(2-((2-methoxyethyl)amino)thiazol-4-yl)pyrido[3,4-d]pyrimidin-4(3H)-one], the inhibition at 0.1 µM was no less than 50%.

As for `CN1CCCC1CCNc1nc(-c2nccc3c(=O)[nH]c(COCc4ccccc4)nc23)cs1` (stereo not shown) [Compound 152, 2-((benzyloxy)methyl)-8-(2-((2-(1-methylpyrrolidin-2-yl)ethyl)amino)thiazol-4-yl)pyrido[3,4-d]pyrimidin-4(3H)-one], the inhibition at 0.1 µM is less than 20%.

For the compound `CN1CCC(Nc2nc(-c3nccc4c(=O)[nH]c(COc5ccc(F)cc5)nc34)cs2)CC1` [Compound 127, 2-((4-fluorophenoxy)methyl)-8-(2-((1-methylpiperidin-4-yl)amino)thiazol-4-yl)pyrido[3,4-d]pyrimidin-4(3H)-one], the inhibition at 0.1 µM is no less than 50%.

With `COCCN1CCC(CNc2nc(-c3nccc4c(=O)[nH]c(COCc5ccccc5)nc34)cs2)CC1` [Compound 154, 2-((benzyloxy)methyl)-8-(2-(((1-(2-methoxyethyl)piperidin-4-yl)methyl)amino)thiazol-4-yl)pyrido[3,4-d]pyrimidin-4(3H)-one], the inhibition at 0.1 µM was less than 20%.

Consider `C[C@H](O)CNc1nc(-c2nccc3c(=O)[nH]c(COc4ccc(F)c(Cl)c4)nc23)cs1` [Compound 84, (S)-2-((3-chloro-4-fluorophenoxy)methyl)-8-(2-((2-hydroxypropyl)amino)thiazol-4-yl)pyrido[3,4-d]pyrimidin-4(3H)-one], for which the inhibition at 0.1 µM is no less than 50%.

On to `O=c1[nH]cnc2c(-c3csc(NC4CCNCC4)n3)nccc12` [Compound 49, 8-(2-(piperidin-4-ylamino)thiazol-4-yl)pyrido[3,4-d]pyrimidin-4(3H)-one], for which the inhibition at 0.1 µM lay in the range of 20 to 50%.

In the case of `O=c1[nH]cnc2c(-n3cc(-c4cccc(OCc5ccccc5)c4)cn3)nccc12` [Compound 5, 8-(4-(3-(benzyloxy)phenyl)-1H-pyrazol-1-yl)pyrido[3,4-d]pyrimidin-4(3H)-one], the inhibition at 0.1 µM was less than 20%.

Consider `O=c1[nH]cnc2c(-n3cc(-c4ccc(F)cc4)cn3)nccc12` [Compound 4, 8-(4-(4-fluorophenyl)-1H-pyrazol-1-yl)pyrido[3,4-d]pyrimidin-4(3H)-one], for which the inhibition at 0.1 µM is less than 20%.

Consider `CN(C)CCCNc1nc(-c2nccc3c(=O)[nH]c(COCc4ccccc4)nc23)cs1` [Compound 150, 2-((benzyloxy)methyl)-8-(2-((3-(dimethylamino)propyl)amino)thiazol-4-yl)pyrido[3,4-d]pyrimidin-4(3H)-one], for which the inhibition at 0.1 µM was less than 20%.

As to `CC(C)c1nc2c(-c3csc(NCCO)n3)nccc2c(=O)[nH]1` [Compound 138, 8-(2-((2-hydroxyethyl)amino)thiazol-4-yl)-2-isopropylpyrido[3,4-d]pyrimidin-4(3H)-one], the inhibition at 0.1 µM was less than 20%.

`O=c1[nH]cnc2c(-n3cc(-c4cnn(Cc5ccccc5)c4)cn3)nccc12` [Compound 13, 8-(1′-benzyl-1H,1′H-[4,4′-bipyrazol]-1-yl)pyrido[3,4-d]pyrimidin-4(3H)-one]: the inhibition at 0.1 µM is less than 20%.

As for `O=c1[nH]c(COc2ccc(F)c(Cl)c2)nc2c(-c3ccc(N4CCOCC4)nc3)nccc12` [Compound 78, 2-((3-chloro-4-fluorophenoxy)methyl)-8-(6-morpholinopyridin-3-yl)pyrido[3,4-d]pyrimidin-4(3H)-one], the inhibition at 0.1 µM is less than 20%.

For the compound `O=c1[nH]c(COc2ccc(F)c(Cl)c2)nc2c(-c3csc(NCCCO)n3)nccc12` [Compound 90, 2-((3-chloro-4-fluorophenoxy)methyl)-8-(2-((3-hydroxypropyl)amino)thiazol-4-yl)pyrido[3,4-d]pyrimidin-4(3H)-one], the inhibition at 0.1 µM was no less than 50%.

In the case of `Nc1nn(-c2nccc3c(=O)[nH]cnc23)cc1-c1cnn(CCN2CCCC2)c1` [Compound 27, 8-(3-amino-1′-(2-(pyrrolidin-1-yl)ethyl)-1H,1′H-[4,4′-bipyrazol]-1-yl)pyrido[3,4-d]pyrimidin-4(3H)-one], the inhibition at 0.1 µM was 20 to 50%.

What is called inhibition is the percentage by which the read-out fell short of the control.

Source of the values: patent US20170057955A1, “Pyridopyrimidinone Compounds for Modulating the Catalytic Activity of Histone Lysine Demethylases (KDMs)” (Dong-A Socio Holdings Co., Ltd., priority 2015, published 2017).
